Laboratory results as given in patent US4684664A, “Derivatives of β-(4-isocyano-1,2,3,4-diepoxycyclopentyl) acrylic acid” (Kureha Kagaku Kogyo Kabushiki Kaisha, priority 1984, dated 1987).

Tests used:
Assay type in all cases: cell-based
[1] = tested on: Staphylococcus aureus FDA 209PJc-1; experiment: Antibacterial activity, agar-dilution MIC, organism No. 1; details: Staphylococcus aureus, FDA209PJC1; Organism No. 1, bouillon-agar; read-out: Minimum Inhibitory Concentration
Summary of the method: (§1)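 Endpoint: MIC in μg/ml of culture medium. Method: agar dilution. Medium: bouillon agar.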

[2] = tested on: Salmonella shottmuelleri 8006; experiment: Antibacterial activity, agar-dilution MIC, organism No. 11; details: Salmonella, 8006; Organism No. 11, bouillon-agar; read-out: Minimum Inhibitory Concentration
Summary of the method: as §1

[3] = tested on: Staphylococcus aureus Terajima; experiment: Antibacterial activity, agar-dilution MIC, organism No. 2; details: Staphylococcus aureus; Organism No. 2, bouillon-agar; read-out: Minimum Inhibitory Concentration
Summary of the method: as §1

[4] = tested on: Candida albicans IAM 4905; experiment: Antifungal activity, agar-dilution MIC, organism No. 29; details: Candida albicans, IAM4905; Organism No. 29, bouillon-agar; read-out: Minimum Inhibitory Concentration
Summary of the method: as §1

[5] = tested on: Salmonella typhimurium IID 971; experiment: Antibacterial activity, agar-dilution MIC, organism No. 8; details: Salmonella enterica; Organism No. 8, bouillon-agar; read-out: Minimum Inhibitory Concentration
Summary of the method: as §1

[6] = tested on: Pseudomonas aeruginosa NCTC 10490; experiment: Antibacterial activity, agar-dilution MIC, organism No. 16; details: Pseudomonas aeruginosa, NCTC10490; Organism No. 16, bouillon-agar; read-out: Minimum Inhibitory Concentration
Summary of the method: as §1

[7] = tested on: Serratia marcescens IAM 1184; experiment: Antibacterial activity, agar-dilution MIC, organism No. 13; details: Serratia marcescens, IAM1184; Organism No. 13, bouillon-agar; read-out: Minimum Inhibitory Concentration
Summary of the method: as §1

[8] = tested on: Proteus rettgeri IFO 3850; experiment: Antibacterial activity, agar-dilution MIC, organism No. 22; details: Providencia rettgeri, IFO3850; Organism No. 22, bouillon-agar; read-out: Minimum Inhibitory Concentration
Summary of the method: as §1

[9] = tested on: Pseudomonas aeruginosa PAO 1; experiment: Antibacterial activity, agar-dilution MIC, organism No. 17; details: Pseudomonas aeruginosa, PAO1; Organism No. 17, bouillon-agar; read-out: Minimum Inhibitory Concentration
Summary of the method: as §1

[10] = tested on: Streptococcus pyogenes Cook; experiment: Antibacterial activity, agar-dilution MIC, organism No. 4; details: Streptococcus pyogenes; Organism No. 4, bouillon-agar; read-out: Minimum Inhibitory Concentration
Summary of the method: as §1

[11] = tested on: Escherichia coli K12 C600 IAM 1264; experiment: Antibacterial activity, agar-dilution MIC, organism No. 6; details: Escherichia coli, IAM1264; Organism No. 6, bouillon-agar; read-out: Minimum Inhibitory Concentration
Summary of the method: as §1

[12] = tested on: Streptococcus faecium IFO 3826; experiment: Antibacterial activity, agar-dilution MIC, organism No. 27; details: Enterococcus faecium, IFO3826; Organism No. 27, bouillon-agar; read-out: Minimum Inhibitory Concentration
Summary of the method: as §1

[13] = tested on: Mycoplasma pneumoniae IID817; experiment: Antimycoplasmal activity, MIC by phenol red colour change, organism No. 28; details: Mycoplasma, IID817; Organism No. 28, PPLO broth + 1% glucose, 37° C.; read-out: Minimum Inhibitory Concentration (MIC)
Method: Mycoplasma pneumoniae IID817 was used as the test microorganism in a culture medium prepared by adding 1% of glucose to "PPLO broth (manufactured by Difco Co.) liquid culture medium" at 37° C. with phenol red as an indicator, thereby culturing the test microorganism.

[14] = tested on: Bacillus subtilis ATCC 6633; experiment: Antibacterial activity, agar-dilution MIC, organism No. 14; details: Bacillus subtilis, ATCC6633; Organism No. 14, bouillon-agar; read-out: Minimum Inhibitory Concentration
Summary of the method: as §1

[15] = tested on: Klebsiella pneumoniae PCI-602; experiment: Antibacterial activity, agar-dilution MIC, organism No. 7; details: Klebsiella pneumoniae, PCI602; Organism No. 7, bouillon-agar; read-out: Minimum Inhibitory Concentration
Summary of the method: as §1

[16] = tested on: Enterobacter aerogenes ATCC 13048; experiment: Antibacterial activity, agar-dilution MIC, organism No. 23; details: Klebsiella aerogenes, ATCC13048; Organism No. 23, bouillon-agar; read-out: Minimum Inhibitory Concentration
Summary of the method: as §1

Proteus vulgaris HX-19 = experiment: Antibacterial activity, agar-dilution MIC, organism No. 21; details: Proteus vulgaris, HX19; Organism No. 21, bouillon-agar; read-out: Minimum Inhibitory Concentration
Summary of the method: as §1

[17] = tested on: Salmonella enteritidis G 14; experiment: Antibacterial activity, agar-dilution MIC, organism No. 12; details: Salmonella enterica, ENTERITIDIS; Organism No. 12, bouillon-agar; read-out: Minimum Inhibitory Concentration
Summary of the method: as §1

Proteus vulgaris OX-19 = experiment: Antibacterial activity, agar-dilution MIC, organism No. 20; details: Proteus vulgaris, OX19; Organism No. 20, bouillon-agar; read-out: Minimum Inhibitory Concentration
Summary of the method: as §1

[18] = tested on: Escherichia coli NIHJ-JC-2; experiment: Antibacterial activity, agar-dilution MIC, organism No. 5; details: Escherichia coli, NIHJJC2; Organism No. 5, bouillon-agar; read-out: Minimum Inhibitory Concentration
Summary of the method: as §1

[19] = tested on: Pseudomonas aeruginosa IFO 3445; experiment: Antibacterial activity, agar-dilution MIC, organism No. 15; details: Pseudomonas aeruginosa, IFO3445; Organism No. 15, bouillon-agar; read-out: Minimum Inhibitory Concentration
Summary of the method: as §1

[20] = tested on: Aspergillus niger IFO 6342; experiment: Antifungal activity, agar-dilution MIC, organism No. 30; details: Aspergillus niger, IFO6342; Organism No. 30, bouillon-agar; read-out: Minimum Inhibitory Concentration
Summary of the method: as §1

[21] = tested on: Proteus morganii IFO 3848; experiment: Antibacterial activity, agar-dilution MIC, organism No. 18; details: Morganella morganii, IFO3848; Organism No. 18, bouillon-agar; read-out: Minimum Inhibitory Concentration
Summary of the method: as §1

[22] = tested on: Streptococcus pyogenes IFO 3340; experiment: Antibacterial activity, agar-dilution MIC, organism No. 26; details: Streptococcus pyogenes, IFO3340; Organism No. 26, bouillon-agar; read-out: Minimum Inhibitory Concentration
Summary of the method: as §1

[23] = tested on: Micrococcus luteus ATCC 9341; experiment: Antibacterial activity, agar-dilution MIC, organism No. 25; details: Micrococcus luteus, ATCC9341; Organism No. 25, bouillon-agar; read-out: Minimum Inhibitory Concentration
Summary of the method: as §1

Salmonella typhi 901 = experiment: Antibacterial activity, agar-dilution MIC, organism No. 9; details: Salmonella enterica, TYPHI, read-out: Minimum Inhibitory Concentration
Summary of the method: as §1

[24] = tested on: Staphylococcus aureus MS 353; experiment: Antibacterial activity, agar-dilution MIC, organism No. 3; details: Staphylococcus aureus, MS353; Organism No. 3, bouillon-agar; read-out: Minimum Inhibitory Concentration
Summary of the method: as §1

[25] = tested on: Proteus mirabilis IFO 3849; experiment: Antibacterial activity, agar-dilution MIC, organism No. 19; details: Proteus mirabilis, IFO3849; Organism No. 19, bouillon-agar; read-out: Minimum Inhibitory Concentration
Summary of the method: as §1

[26] = tested on: Salmonella paratyphi-A 1015; experiment: Antibacterial activity, agar-dilution MIC, organism No. 10; details: Salmonella enterica, PARATYPHI, read-out: Minimum Inhibitory Concentration
Summary of the method: as §1

Enterobacter cloacae 963 = experiment: Antibacterial activity, agar-dilution MIC, organism No. 24; details: Enterobacter cloacae, 963; Organism No. 24, bouillon-agar; read-out: Minimum Inhibitory Concentration
Summary of the method: as §1

Measured: MIC

[C-]#[N+]C12CC3(/C=C/C(=O)Nc4ccccc4C(N)=O)OC3C1O2 (stereo not drawn) [compound 62]
3.13 µg/mL: [15] | Proteus vulgaris HX-19 | Proteus vulgaris OX-19
50 µg/mL: [3] | [5] | [17]
< 0.2 µg/mL: [13]
25 µg/mL: [2] | [14] | [23] | Salmonella typhi 901 | [26]
12.5 µg/mL: [1] | [21] | [24]
6.25 µg/mL: [22]
100 µg/mL: [4] | [20]
> 200 µg/mL: all other assays above

[C-]#[N+]C12CC3(/C=C/C(=O)Nc4ccc(S(N)(=O)=O)cc4)OC3C1O2 (stereo not drawn) [compound 63]
50 µg/mL: [14] | Salmonella typhi 901
3.13 µg/mL: [1] | [15] | [21] | [24]
100 µg/mL: [4] | [5] | [20]
6.25 µg/mL: [8] | [22]
12.5 µg/mL: [2] | [26]
25 µg/mL: [3] | [17] | [23]
1.56 µg/mL: Proteus vulgaris HX-19 | Proteus vulgaris OX-19
< 0.2 µg/mL: [13]
> 200 µg/mL: all other assays above

[C-]#[N+]C12CC3(/C=C/C(=O)Nc4ccc5c(c4)OCO5)OC3C1O2 (stereo not drawn) [compound 64]
0.05 µg/mL: Proteus vulgaris HX-19 | [23]
0.39 µg/mL: [2] | [4] | [26]
1.56 µg/mL: [22]
0.2 µg/mL: [1] | [15] | Proteus vulgaris OX-19 | [24]
25 µg/mL: [18]
3.13 µg/mL: [8] | [17] | Salmonella typhi 901
50 µg/mL: [7]
12.5 µg/mL: [10] | [11] | [12]
< 0.2 µg/mL: [13]
6.25 µg/mL: [5] | [14] | [20] | [21]
0.78 µg/mL: [3]
> 200 µg/mL: all other assays above

[C-]#[N+]C12CC3(/C=C/C(=O)Nc4ccc5c(c4)CCC5)OC3C1O2 (stereo not drawn) [compound 75]
0.39 µg/mL: [1]
3.13 µg/mL: [21]
0.78 µg/mL: [15] | Proteus vulgaris HX-19 | [22] | [24] | [26]
1.56 µg/mL: [2] | [3] | [12] | [14] | Proteus vulgaris OX-19
200 µg/mL: [4] | [20] | [23] | Enterobacter cloacae 963
< 0.2 µg/mL: [13]
> 200 µg/mL: all other assays above
